In patent US12226490B2, “Anti-ROR1 antibody conjugates, compositions comprising anti ROR1 antibody conjugates, and methods of making and using anti-ROR1 antibody conjugates preliminary class” (Sutro Biopharma, Inc., priority 2022, dated 2025):

Key:
[1] = test system: ROR1 positive Ntera-2 cell; test: In vitro cell killing of ROR1 ADCs, ROR1 positive cells (Cell Titer-Glo, 120 hours); assay type: cell-based, human; conditions: Table 13
Excerpt: (§1) Ntera-2, MDA-MB-231, MCF7, HCT116 and Mino cells were obtained from ATCC. HCT116-hRor1-D02 clone was generated by transfecting HCT116 cells with a plasmid containing human Ror1 cDNA sequence and selected for highest stable expression of hRor1 on the cell surface. MDA-MB-231, MCF7, HCT116 and HCT116-Ror1 cell were maintained in Ham's F-12 high glucose DMEM (50-50) (Cellgro-Mediatech; Manassas, VA) supplemented with 10% heat-inactivated fetal bovine serum (Hyclone; Thermo Scientific; Waltham, MA), 1% Penicillin/Streptomycin (Cellgro-Mediatech; Manassas, VA) and 2 mmol/L-glutamax (Life Technology; Carlsbad, CA). Mino cells were maintained in RPMI-1640 medium (Cellgro-Mediatech; Manassas, VA) supplemented with 20% heat-inactivated fetal bovine serum (Hyclone; Thermo Scientific; Waltham, MA), 1% Penicillin/Streptomycin (Cellgro-Mediatech; Manassas, VA) and 2 mmol/L-glutamax (Life Technology; Carlsbad, CA).
(§2) Anti-ROR1 antibody was conjugated to different linker-warheads described herein at different DARs and the cell killing activity of the ADCs were evaluated on ROR1 positive Ntera-2 cell and ROR1 negative MCF7 cells.
(§3) Ntera-2 or MCF7 cell at 625 cells/25 μL were seeded in a 384-well flat bottom white polystyrene plate one day before the assay start. ADCs were formulated at 2× starting concentration. Filter sterilized samples were serial diluted (1:3) under sterile conditions and added onto cells in triplicates. Plates were cultured at 37° C. in a CO2 incubator for 120 hours. […] Relative luminescence was measured on an ENVISION® plate reader (Perkin-Elmer; Waltham, MA). Relative luminescence readings were converted to % viability using untreated cells as controls. […]
(§4) To evaluate if the cell killing activity of anti-ROR1 ADCs is dependent on antibody binding to ROR1 expressed on cell surface, the same linker-warheads (LP3, LP4) were conjugated to an anti-GFP antibody and the cell killing of the anti-ROR1 and anti-GFP ADCs were evaluated in cell killing assays on ROR1 positive Ntera-2 cell and ROR1 negative MCF7 cells.

[2] = test system: ROR1 negative MCF7 cells; test: In vitro cell killing of ROR1 ADCs, ROR1 negative cells (Cell Titer-Glo, 120 hours); assay type: cell-based, human; conditions: Table 13
Excerpt: as §1, §2, §3, §4

[3] = test system: ROR1-positive Ntera-2 cells; test: Induction of immunogenic cell death markers (calreticulin by FACS, HMGB1 by ELISA); assay type: cell-based, human; conditions: 3 days treatment
Description: ROR1-positive Ntera-2 cells were treated with Conjugate 46 or exatecan for 3 days. Calreticulin on the cell surface was measured by FACS and HMGB1 in the cell culture medium were measured by ELISA. […] FIG. 20A and FIG. 20B illustrate calreticulin expression and HMGB1 release of Ntera-2 cells in the presence of Conjugate 46 or exatecan compared to the un-conjugated antibody and an isotype control of Conjugate 46.

[4] = test system: ROR1-positive Ntera-2 cells co-cultured with PMBCS; test: Ntera-2 / PBMC co-culture: target cell killing and monocyte activation (FACS); assay type: cell-based, human
Description: ROR1-positive Ntera-2 cells were co-cultured with PMBCS at E:T=[…] and treated with Conjugate 46 or exatecan for 3 days. Live target cell count and monocyte activation were measured by FACS. […] FIG. 21A and FIG. 21B are graphs showing the percent of live target cells and monocyte activation in Ntera-2 cells following treatment with Conjugate 46 or exatecan compared to the un-conjugated antibody and an isotype control of Conjugate 46. […] Unconjugated anti-ROR1 antibody or a non-targeted ADC had no activity. […] Viability and calreticulin surface expression were measured and presented as a percentage compared to untreated cells.

[5] = test system: TNBC PDX tumors; test: TNBC PDX models, single agent or combination with olaparib; assay type: in vivo, athymic nude Fox1^nu mice; conditions: CTG-0437, CTG-1017, and CTG-2055; olaparib p.o. 50 mg/kg qd×28
Excerpt: The activity of Conjugate 46 as a single agent or in combination with the PARP inhibitor olaparib was additionally assessed in TNBC PDX models. Briefly, PDX tumors, spanning varying levels of ROR1 expression and sensitivity to olaparib, were passaged in athymic nude Fox1^nu mice before being processed into tumor fragments for subcutaneous implantation into the hind flank of mice for study initiation. When tumors reached a volume of around 150-300 mm^3, the mice were randomized and enrolled into the study. Tumor-bearing mice were administered up to three weekly doses (qw×3) of Conjugate 46 i.v. at 5 mg/kg and up to twenty-eight daily doses (qd×28) of olaparib p.o. at 50 mg/kg.
Combination treatment with Conjugate 46 and olaparib (50 mg/kg, qd×28) is conducted using a 2 mg/kg, qw×3 dosing regimen for Conjugate 46. The combination therapy is assessed in six TNBC PDX models as described in Example 26.

[6] = biological target: T1, hROR1 (ROR1-extracellular domain) (Homo sapiens, UniProt Q01973); test: Biacore off-rate and kinetic analysis, ROR1 extracellular domain; assay type: binding; conditions: Sample ROR1 ECD, SPR
T1 construct: the ROR1-extracellular domain (hROR1); purchased Acro Biosystems
Description: Anti-Fc polyclonal antibodies were immobilized onto a CM5 chip (GE Life Sciences) using amine coupling chemistry (from Amine Coupling Kit, GE Life Sciences). The immobilization steps were carried out at a flow rate of 25 μL/min in 1×HBS-EP+ buffer (GE Life Sciences; 10× Stock diluted before use). The sensor surfaces were activated for 7 min with a mixture of NHS (0.05 M) and EDC (0.2 M). The Anti-Fc antibodies were injected over all 4 flow cells at a concentration of 25 ug/ml in 10 mM sodium acetate, pH 4.5, for 7 min. Ethanolamine (1 M, pH 8.5) was injected for 7 min to block any remaining activated groups. […]
The data was fit with the Biacore T200 Evaluation software, using a 1-1 Langmuir binding model. KD (affinity, nM) was determined as a ratio of the kinetic rate constants calculated from the fits of the association and dissociation phases.
For anti-CD3-LC-containing IgGs that had detectable ROR1-binding in ELISA (1944-A07 and 1987-C05 variants), those antibodies were further tested for binding by surface plasmon resonance (SPR). Binding kinetics were assessed to the ROR1-frizzled domain (hROR1-Fz) or the ROR1-extracellular domain (hROR1) for 1944-A07 and 1987-C05 variants, respectively. […] KD (affinity, nM) was determined as a ratio of the kinetic rate constants calculated from the fits of the association and dissociation phases.

[7] = test system: MDA-MB-231 tumor; test: MDA-MB-231 TNBC xenograft model; assay type: in vivo, SCID/beige mice
Description: The activities of ROR1-targeted ADCs described herein were examined in a MDA-MB-231 TNBC xenograft model. Briefly, SCID/beige mice were implanted subcutaneously with 5×10^6 MDA-MB-231 tumor cells in the mammary fat pad and randomized and enrolled into the study 7 days post implant, with tumor sizes around 130 mm^3. Tumor-bearing mice were administered four weekly doses (qw×4) of the test articles at doses ranging from 2 mg/kg to 5 mg/kg. All treatments were well tolerated with normal body weight gain throughout the course of the study.
SCID/beige mice were implanted subcutaneously with 5×10^6 MDA-MB-231 tumor cells in the mammary fat pad and randomized and enrolled into the study 7 days post implant, with tumor sizes around 130 mm^3. Tumor-bearing mice were administered four weekly doses (qw×4) of the test articles at doses ranging from 2 mg/kg to 5 mg/kg. All treatments were well tolerated with normal body weight gain throughout the course of the study.
SCID/beige mice were implanted subcutaneously with 5×10^6 MDA-MB-231 tumor cells in the mammary fat pad and randomized and enrolled into the study 7 days post implant, with tumor sizes around 130 mm^3. Tumor-bearing mice were administered three weekly doses (qw×3) of the test articles at doses ranging from 2 mg/kg to 5 mg/kg. All treatments were well tolerated with normal body weight gain throughout the course of the study. […]

[8] = co-culture with PMBCS at E:T=10.1, 3 days

CC[C@@]1(O)C(=O)OCc2c1cc1n(c2=O)Cc2c-1nc1cc(F)c(C)c3c1c2[C@@H](NC(=O)CO)CC3 [Dxd]
NTERA-2 Span [1]: 99%
MCF-7 Span [2]: 63%

COc1cccc2c1C(=O)c1c(O)c3c(c(O)c1C2=O)C[C@@](O)(C(=O)NCCN)C[C@@H]3O[C@H]1C[C@H]2[C@H](O[C@@H]3[C@@H](OC)OCCN32)[C@H](C)O1 [PNU-EDA]
NTERA-2 Span [1]: 99%
MCF-7 Span [2]: 85%

CC[C@@]1(O)C(=O)OCc2c1cc1n(c2=O)Cc2c-1nc1cc(F)c(C)c3c1c2[C@@H](N)CC3 [exatecan]
NTERA-2 Span [1]: 98%
MCF-7 Span [2]: 91%
markers for immunogenic cell death (calreticulin translocation to the cell surface and HMGB1 release) [3]: induced markers for immunogenic cell death
cell killing of target cells (live target cell count) [4, 8]: induced potent cell killing of target cells
monocyte activation (CD86 expression) [4, 8]: potently induced monocyte activation
calreticulin on the cell surface ([4]; concomitant with reduced viability (FIG. 21C)): calreticulin could be detected on the cell surface

O=C(c1cc(Cc2n[nH]c(=O)c3ccccc23)ccc1F)N1CCN(C(=O)C2CC2)CC1 [olaparib]
tumor growth suppression, single agent [5]: moderate tumor growth suppression

B1: 1987-C05 HC w/hUCHT1 LC3: HC of lead antibody 1987-C05 co-expressed with LC "derived from anti-CD3 antibodies": hUCHT1-LC3 (antibody, V domains shown)
VH: EVQLVESGGGLVQPGGSLRLSCAASGFNISDYDIHWVRQAPGKGLEWVGGIDPDDGSTDYADSVKGRFTISADTSKNTAYLQMNSLRAEDTAVYYCARDYGVFDYWGQGTLVTVSS
VL: DIQMTQSPSTLSASVGDRVTITCRASQDIRNYLNWYQQKPGKAPKLLIYYTSRLHSGVPSRFSGSGSGTEYTLTISSLQPDDFATYYCQQGNTLPWTFGGGTKVEIK
kd1 [6]: 0.000645 s⁻¹
ka1 ([6]; 1-1 Langmuir): 566000 M⁻¹ s⁻¹

B2: Conjugate 4 (conjugate)
heavy: MEVQLVESGGGLVQPGGSLRLSCAASGFNISDYDIHWVRQAPGKGLEWVGGIDPADGSTDYADSVKGRFTISADTSKNTAYLQMNSLRAEDTAVYYCARDYGVYDYWGQGTLVTVSSASTKGPSVFPLAPSSKSTSGGTAALGCLVKDYFPEPVTVSWNSGALTSGVHTFPAVLQSSGLSLSSVVTVPSSSLGTQTYICNVNHKPSNTKVDKKVEPKSCDKTHTCPPCPAPELLGGPSVFLFPPKPKDTLMISRTPEVTCVVVDVSHEDPEVKFNWYVDGVEVHNAKTKPREEQYNSTYRVVSVLTVLHQDWLNGKEYKCKVSNKALPAPIEKTISKAKGQPREPQVYTLPPSREEMTKNQVSLTCLVKGFYPSDIAVEWESNGQPENNYKTTPPVLDSDGSFLYSKLTVDKSRWQQGNVFSCSVMHEALHNHYTQKSLSLSPGK
light: MDIQMTQSPSSLSASVGDRVTITCRASQDVNTAVAWYQQKPGAPKLLIYSASFLYSGVPSRFSGSRSGTDFTLTISSLQPEDFATYYCQQHYTTPPTFGQGTKVEIKRTVAAPSVFIFPPSDEQLKSGTASVVCLLNNFYPREAKVQWKVDNALQSGNSQSVTEQDSKDSTYSLSSTLTLSKADYEKHKVYACEVTHQGLSSPVTKSFNRGEC
TGI ([7]; Example 20, day 42, 2 mg/kg qw×4): 36%
TGI ([7]; Example 21, day 43, 5 mg/kg qw×4): 23%
